Data published in PubChem BioAssay (NCI).
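Dose response: 5 concentrations. Exposure: 48 h. Format: 96-well plates. Endpoint: linear interpolation; highest concentration if not reached. GI50 = concentration required for 50% inhibition of growth. TGI: total growth inhibition.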

What was measured:
Experiment in all cases: DTP human tumour cell line panel, 48 h
786-0 renal = test system: 786-0 renal
A498 renal = test system: A498 renal
A549 NSCLC = test system: A549 NSCLC
ACHN renal = test system: ACHN renal
BT-549 breast = test system: BT-549 breast
CAKI-1 renal = test system: CAKI-1 renal
CCRF-CEM leukemia = test system: CCRF-CEM leukemia
COLO 205 colon = test system: COLO 205 colon
DU-145 prostate = test system: DU-145 prostate
EKVX NSCLC = test system: EKVX NSCLC
HCC-2998 colon = test system: HCC-2998 colon
HCT-116 colon = test system: HCT-116 colon
HCT-15 colon = test system: HCT-15 colon
HL-60(TB) leukemia = test system: HL-60(TB) leukemia
HOP-62 NSCLC = test system: HOP-62 NSCLC
HS 578T breast = test system: HS 578T breast
HT29 colon = test system: HT29 colon
IGROV1 ovarian = test system: IGROV1 ovarian
K-562 leukemia = test system: K-562 leukemia
KM12 colon = test system: KM12 colon
LOX IMVI melanoma = test system: LOX IMVI melanoma
M14 melanoma = test system: M14 melanoma
MALME-3M melanoma = test system: MALME-3M melanoma
MCF7 breast = test system: MCF7 breast
MDA-MB-231 breast = test system: MDA-MB-231 breast
MDA-MB-435 = test system: MDA-MB-435
MOLT-4 leukemia = test system: MOLT-4 leukemia
NCI-H226 lung = test system: NCI-H226 lung
NCI-H23 lung = test system: NCI-H23 lung
NCI-H460 lung = test system: NCI-H460 lung
NCI-H522 lung = test system: NCI-H522 lung
NCI/ADR-RES ovarian = test system: NCI/ADR-RES ovarian
OVCAR-4 ovarian = test system: OVCAR-4 ovarian
OVCAR-5 ovarian = test system: OVCAR-5 ovarian
OVCAR-8 ovarian = test system: OVCAR-8 ovarian
PC-3 prostate = test system: PC-3 prostate
RPMI-8226 leukemia = test system: RPMI-8226 leukemia
RXF 393 renal = test system: RXF 393 renal
SF-268 CNS = test system: SF-268 CNS
SF-295 CNS = test system: SF-295 CNS
SF-539 CNS = test system: SF-539 CNS
SK-MEL-2 melanoma = test system: SK-MEL-2 melanoma
SK-MEL-28 melanoma = test system: SK-MEL-28 melanoma
SK-MEL-5 melanoma = test system: SK-MEL-5 melanoma
SK-OV-3 ovarian = test system: SK-OV-3 ovarian
SN12C renal = test system: SN12C renal
SNB-19 CNS = test system: SNB-19 CNS
SNB-75 CNS = test system: SNB-75 CNS
SR leukemia = test system: SR leukemia
SW-620 colon = test system: SW-620 colon
T-47D breast = test system: T-47D breast
TK-10 renal = test system: TK-10 renal
U251 CNS = test system: U251 CNS
UACC-257 melanoma = test system: UACC-257 melanoma
UACC-62 melanoma = test system: UACC-62 melanoma
UO-31 renal = test system: UO-31 renal

`Nc1ncc(-c2ccc3ncnc(N4CCc5cc(F)c(F)cc54)c3c2)cn1` was tested, and the GI50 (786-0 renal) was 3.42 µM, the TGI (786-0 renal) was greater than 100 µM and the GI50 (A498 renal) was 0.251 µM. It also gave a TGI (A498 renal) of 2.13 µM, a GI50 (A549 NSCLC) of 2.35 µM and a TGI (A549 NSCLC) greater than 100 µM. It also gave a GI50 (ACHN renal) of 1.73 µM, a TGI (ACHN renal) greater than 100 µM and a GI50 (BT-549 breast) of 1.86 µM. For the same compound, the TGI (BT-549 breast) was greater than 100 µM, the GI50 (CAKI-1 renal) was 0.89 µM and the TGI (CAKI-1 renal) was greater than 100 µM. It also gave a GI50 (CCRF-CEM leukemia) of 2.38 µM, a TGI (CCRF-CEM leukemia) greater than 100 µM and a GI50 (COLO 205 colon) of 5.77 µM. The TGI (COLO 205 colon) was greater than 100 µM, the GI50 (DU-145 prostate) was 2.38 µM and the TGI (DU-145 prostate) was greater than 100 µM. For the same compound, the GI50 (EKVX NSCLC) was 1.7 µM, the TGI (EKVX NSCLC) was greater than 100 µM and the GI50 (HCC-2998 colon) was 3.08 µM. For the same compound, the TGI (HCC-2998 colon) was greater than 100 µM, the GI50 (HCT-116 colon) was 4.51 µM and the TGI (HCT-116 colon) was greater than 100 µM. For the same compound, the GI50 (HCT-15 colon) was 2.28 µM, the TGI (HCT-15 colon) was greater than 100 µM and the GI50 (HL-60(TB) leukemia) was 5.52 µM. For the same compound, the TGI (HL-60(TB) leukemia) was greater than 100 µM, the GI50 (HOP-62 NSCLC) was 1.36 µM and the TGI (HOP-62 NSCLC) was greater than 100 µM. For the same compound, the GI50 (HS 578T breast) was 0.751 µM, the TGI (HS 578T breast) was 4.66 µM and the GI50 (HT29 colon) was 2.9 µM. For the same compound, the TGI (HT29 colon) was greater than 100 µM, the GI50 (IGROV1 ovarian) was 0.459 µM and the TGI (IGROV1 ovarian) was 3.34 µM. It also gave a GI50 (K-562 leukemia) greater than 100 µM, a TGI (K-562 leukemia) greater than 100 µM and a GI50 (KM12 colon) of 3.92 µM. For the same compound, the TGI (KM12 colon) was greater than 100 µM, the GI50 (LOX IMVI melanoma) was 1.77 µM and the TGI (LOX IMVI melanoma) was 14.1 µM. It also gave a GI50 (M14 melanoma) of 3.53 µM, a TGI (M14 melanoma) greater than 100 µM and a GI50 (MALME-3M melanoma) of 1.08 µM. For the same compound, the TGI (MALME-3M melanoma) was greater than 100 µM, the GI50 (MCF7 breast) was 1.23 µM and the TGI (MCF7 breast) was greater than 100 µM. It also gave a GI50 (MDA-MB-231 breast) of 1.87 µM, a TGI (MDA-MB-231 breast) greater than 100 µM and a GI50 (MDA-MB-435) of 2.73 µM. For the same compound, the TGI (MDA-MB-435) was greater than 100 µM, the GI50 (MOLT-4 leukemia) was 3.32 µM and the TGI (MOLT-4 leukemia) was greater than 100 µM. For the same compound, the GI50 (NCI-H226 lung) was 3 µM, the TGI (NCI-H226 lung) was greater than 100 µM and the GI50 (NCI-H23 lung) was 4.76 µM. For the same compound, the TGI (NCI-H23 lung) was greater than 100 µM, the GI50 (NCI-H460 lung) was 2.11 µM and the TGI (NCI-H460 lung) was greater than 100 µM. The GI50 (NCI-H522 lung) was 4.94 µM, the TGI (NCI-H522 lung) was greater than 100 µM and the GI50 (NCI/ADR-RES ovarian) was 3.91 µM. It also gave a TGI (NCI/ADR-RES ovarian) greater than 100 µM, a GI50 (OVCAR-4 ovarian) of 1.76 µM and a TGI (OVCAR-4 ovarian) greater than 100 µM. For the same compound, the GI50 (OVCAR-5 ovarian) was 1.53 µM, the TGI (OVCAR-5 ovarian) was greater than 100 µM and the GI50 (OVCAR-8 ovarian) was 3.06 µM. It also gave a TGI (OVCAR-8 ovarian) greater than 100 µM, a GI50 (PC-3 prostate) of 1.44 µM and a TGI (PC-3 prostate) greater than 100 µM. For the same compound, the GI50 (RPMI-8226 leukemia) was 0.559 µM, the TGI (RPMI-8226 leukemia) was greater than 100 µM and the GI50 (RXF 393 renal) was 0.381 µM. The TGI (RXF 393 renal) was 3.15 µM, the GI50 (SF-268 CNS) was 1.8 µM and the TGI (SF-268 CNS) was greater than 100 µM. The GI50 (SF-295 CNS) was 2.3 µM, the TGI (SF-295 CNS) was greater than 100 µM and the GI50 (SF-539 CNS) was 2.49 µM. The TGI (SF-539 CNS) was greater than 100 µM, the GI50 (SK-MEL-2 melanoma) was 2.44 µM and the TGI (SK-MEL-2 melanoma) was 12.3 µM. It also gave a GI50 (SK-MEL-28 melanoma) of 3.26 µM, a TGI (SK-MEL-28 melanoma) greater than 100 µM and a GI50 (SK-MEL-5 melanoma) of 6.1 µM. It also gave a TGI (SK-MEL-5 melanoma) greater than 100 µM, a GI50 (SK-OV-3 ovarian) of 1.66 µM and a TGI (SK-OV-3 ovarian) greater than 100 µM. The GI50 (SN12C renal) was 2.11 µM, the TGI (SN12C renal) was greater than 100 µM and the GI50 (SNB-19 CNS) was 5.35 µM. It also gave a TGI (SNB-19 CNS) greater than 100 µM, a GI50 (SNB-75 CNS) of 0.455 µM and a TGI (SNB-75 CNS) of 4.03 µM. For the same compound, the GI50 (SR leukemia) was 1.82 µM, the TGI (SR leukemia) was greater than 100 µM and the GI50 (SW-620 colon) was 6.86 µM. It also gave a TGI (SW-620 colon) greater than 100 µM, a GI50 (T-47D breast) of 0.858 µM and a TGI (T-47D breast) greater than 100 µM. It also gave a GI50 (TK-10 renal) of 0.709 µM, a TGI (TK-10 renal) greater than 100 µM and a GI50 (U251 CNS) of 4.81 µM. The TGI (U251 CNS) was greater than 100 µM, the GI50 (UACC-257 melanoma) was 7.3 µM and the TGI (UACC-257 melanoma) was greater than 100 µM. The GI50 (UACC-62 melanoma) was 1.37 µM, the TGI (UACC-62 melanoma) was greater than 100 µM and the GI50 (UO-31 renal) was 0.396 µM. For the same compound, the TGI (UO-31 renal) was greater than 100 µM.
